In patent publication US10472334B2, “Small molecules for inhibiting male fertility” (The University of North Carolina at Chapel Hill, priority 2014, dated 2019):
Like-named read-outs stand apart in the source and are kept apart here.

Experiments:
[1] = In vitro toxicity, cell viability; type: cell-based
Procedure: The percent of control activity was calculated by comparing the fluorescence reading in the presence of test compound to that in the absence of a test (control) compound. Subsequently, the percent of inhibition was calculated by subtraction of the percent of control value from 100. IC50 values were determined by non-linear regression analysis of the concentration-response curves. These parameters are obtained by Hill equation curve fitting. See, for example, Nociari, M. M. et al. (1998), J. Immunol. Meth., 213: 157-167.

Caco-2 cells = test: In vitro absorption, Caco-2 permeability and recovery; type: in vitro ADME
Procedure: (§1) The in vitro absorption was measured using methods described in Hidalgo, I. J. et al. (1989), Gastroenterology, 96: 736-749.
(§2) The apparent permeability coefficient (Papp) of the test compound was calculated as follows:
(§3) [formula] where VR is the volume of the receiver chamber. CR, end is the concentration of the test compound in the receiver chamber at the end time point, Δt is the incubation time and A is the surface area of the cell monolayer. CD, mid is the calculated mid-point concentration of the test compound in the donor side, which is the mean value of the donor concentration at time 0 minute and the donor concentration at the end time point. CR, mid is the mid-point concentration of the test compound in the receiver side, which is one half of the receiver concentration at the end time point. Concentrations of the test compound were expressed as peak areas of the test compound.
(§4) The recovery of the test compound was calculated as follows: […]
(§5) where VD and VR are the volumes of the donor and receiver chambers, respectively. CD,end is the concentration of the test compound in the donor sample at the end time point. CR,end is the concentration of the test compound in the receiver sample at the end time point. CD0 is the concentration of the test compound in the donor sample at time zero. Concentrations of the test compound are expressed as peak areas of the test compound. […]

[2] = as above; type: in vitro ADME; settings: human, Caco-2; read-out: permeability to Caco-2 cells
Procedure: as §1, §2, §3, §4, §5

human spermatozoa = test: Intracellular free calcium in Fluo-4 loaded spermatozoa; type: cell-based
Procedure: A series of experiments was performed to determine the mechanism of action of the compounds described herein. The experiments were carried out as described in O'Rand and Widgren, “Loss of Calcium in Human Spermatozoa via EPPIN, the Semenogelin Receptor,” Biology of Reproduction, (2012) 86(2):55, 1-7.
Fluo-4 AM-loaded spermatozoa were pipetted into 96-well black-walled plates (Perkin Elmer, Waltham, Mass.) at 1.13105-0.93105 spermatozoa/well in 50 μl of M16M at 378 C, and read in a BioTek (Winookski, Vt.) Synergy2 Multiplatform automated plate reader (with heater and shaker). Wells were excited using a 485/20 filter, and emission was read with a 528/20 filter, and data were acquired using a kinetic modification of the Alexafluor 488 protocol in the Gen5 software program (BioTek). […] After treatment of spermatozoa in each well with control or test reagents was completed (10-15 min), the Fluo-4 in the spermatozoa in each well was calibrated by adding ionomycin (2.5 μM), followed 15 min later by the addition of Mn^2 (2 mM MnCl2) to bring the fluorescence (F) to 30% of that of the saturated dye. […] Using these values for each well, the Fmax and Fmin were calculated according to the method of Kao et al. [Kao et al., J Biol Chem. 1989; 264:8179-8184.].
Fluorescence measurements were converted to calcium concentration according to the equation [Ca^2+]=Kd([F−Fmin]/[Fmax−F]) […]

CCOC(=O)CSc1nc(NNC(=O)OC)nc(Nc2ccc(NC(=O)OC)c(O)c2)n1 [TZ4_121, [4-(3-Hydroxy-4-methoxycarbonylamino-phenylamino)-6-(N′methoxycarbonyl-hydrazino)-1,3,5-triazin-2-ylsulfanyl]-acetic acid ethyl ester]
IC50 ([1]; FIG. 2, read-out: cell viability IC50): ~17 µM
IC50 ([1]; read-out: In vitro toxicology IC50): ~20 µM
Recovery from the permeability assay (Caco-2 cells): 93%
Papp [2]: 0.2 ×10⁻⁶ cm/s
change in intracellular calcium of spermatozoa (human spermatozoa): significant loss of calcium
